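Following 48 hours of exposure in 96-well plates, responses at five concentrations were used to interpolate endpoints linearly. TGI is the concentration that stops growth completely.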
How the values were obtained:
Assay in all cases: NCI anticancer screen, dose series, 48 h
786-0 renal = tested on: 786-0 renal
A549 NSCLC = tested on: A549 NSCLC
CAKI-1 renal = tested on: CAKI-1 renal
CCRF-CEM leukemia = tested on: CCRF-CEM leukemia
COLO 205 colon = tested on: COLO 205 colon
DLD-1 colon = tested on: DLD-1 colon
DMS 114 small cell lung = tested on: DMS 114 small cell lung
DMS 273 small cell lung = tested on: DMS 273 small cell lung
EKVX NSCLC = tested on: EKVX NSCLC
HCC-2998 colon = tested on: HCC-2998 colon
HCT-116 colon = tested on: HCT-116 colon
HL-60(TB) leukemia = tested on: HL-60(TB) leukemia
HOP-62 NSCLC = tested on: HOP-62 NSCLC
HOP-92 NSCLC = tested on: HOP-92 NSCLC
HT29 colon = tested on: HT29 colon
IGROV1 ovarian = tested on: IGROV1 ovarian
K-562 leukemia = tested on: K-562 leukemia
KM12 colon = tested on: KM12 colon
LXFL 529 NSCLC = tested on: LXFL 529 NSCLC
M14 melanoma = tested on: M14 melanoma
M19-MEL melanoma = tested on: M19-MEL melanoma
MALME-3M melanoma = tested on: MALME-3M melanoma
MOLT-4 leukemia = tested on: MOLT-4 leukemia
NCI-H226 lung = tested on: NCI-H226 lung
NCI-H23 lung = tested on: NCI-H23 lung
NCI-H522 lung = tested on: NCI-H522 lung
OVCAR-3 ovarian = tested on: OVCAR-3 ovarian
OVCAR-4 ovarian = tested on: OVCAR-4 ovarian
OVCAR-8 ovarian = tested on: OVCAR-8 ovarian
RPMI-8226 leukemia = tested on: RPMI-8226 leukemia
RXF-631 renal = tested on: RXF-631 renal
SF-268 CNS = tested on: SF-268 CNS
SF-295 CNS = tested on: SF-295 CNS
SF-539 CNS = tested on: SF-539 CNS
SK-MEL-2 melanoma = tested on: SK-MEL-2 melanoma
SK-MEL-28 melanoma = tested on: SK-MEL-28 melanoma
SK-MEL-5 melanoma = tested on: SK-MEL-5 melanoma
SK-OV-3 ovarian = tested on: SK-OV-3 ovarian
SN12C renal = tested on: SN12C renal
SNB-19 CNS = tested on: SNB-19 CNS
SNB-75 CNS = tested on: SNB-75 CNS
SNB-78 CNS = tested on: SNB-78 CNS
SR leukemia = tested on: SR leukemia
SW-620 colon = tested on: SW-620 colon
TK-10 renal = tested on: TK-10 renal
UACC-257 melanoma = tested on: UACC-257 melanoma
UACC-62 melanoma = tested on: UACC-62 melanoma
UO-31 renal = tested on: UO-31 renal
XF 498 CNS = tested on: XF 498 CNS
A498 renal = tested on: A498 renal
ACHN renal = tested on: ACHN renal
HCT-15 colon = tested on: HCT-15 colon
HOP-18 NSCLC = tested on: HOP-18 NSCLC
KM20L2 colon = tested on: KM20L2 colon
LOX IMVI melanoma = tested on: LOX IMVI melanoma
NCI-H460 lung = tested on: NCI-H460 lung
OVCAR-5 ovarian = tested on: OVCAR-5 ovarian
RXF 393 renal = tested on: RXF 393 renal
U251 CNS = tested on: U251 CNS

OC1(C23CC4CC(CC(C4)C2)C3)CSCC1(O)C12CC3CC(CC(C3)C1)C2 (stereo unspecified)
TGI (786-0 renal): > 100 µM
TGI (A549 NSCLC): > 100 µM
TGI (CAKI-1 renal): > 100 µM
TGI (CCRF-CEM leukemia): > 10 µM
TGI (COLO 205 colon): > 100 µM
TGI (DLD-1 colon): > 100 µM
TGI (DMS 114 small cell lung): > 100 µM
TGI (DMS 273 small cell lung): > 100 µM
TGI (EKVX NSCLC): > 100 µM
TGI (HCC-2998 colon): > 100 µM
TGI (HCT-116 colon): > 100 µM
TGI (HL-60(TB) leukemia): > 10 µM
TGI (HOP-62 NSCLC): > 100 µM
TGI (HOP-92 NSCLC): > 100 µM
TGI (HT29 colon): > 100 µM
TGI (IGROV1 ovarian): > 100 µM
TGI (K-562 leukemia): > 100 µM
TGI (KM12 colon): > 100 µM
TGI (LXFL 529 NSCLC): > 100 µM
TGI (M14 melanoma): > 100 µM
TGI (M19-MEL melanoma): > 100 µM
TGI (MALME-3M melanoma): > 100 µM
TGI (MOLT-4 leukemia): > 10 µM
TGI (NCI-H226 lung): > 100 µM
TGI (NCI-H23 lung): > 100 µM
TGI (NCI-H522 lung): > 100 µM
TGI (OVCAR-3 ovarian): > 100 µM
TGI (OVCAR-4 ovarian): > 100 µM
TGI (OVCAR-8 ovarian): > 100 µM
TGI (RPMI-8226 leukemia): > 100 µM
TGI (RXF-631 renal): > 100 µM
TGI (SF-268 CNS): > 100 µM
TGI (SF-295 CNS): > 100 µM
TGI (SF-539 CNS): > 100 µM
TGI (SK-MEL-2 melanoma): > 100 µM
TGI (SK-MEL-28 melanoma): > 100 µM
TGI (SK-MEL-5 melanoma): > 100 µM
TGI (SK-OV-3 ovarian): > 100 µM
TGI (SN12C renal): > 100 µM
TGI (SNB-19 CNS): > 100 µM
TGI (SNB-75 CNS): > 100 µM
TGI (SNB-78 CNS): > 100 µM
TGI (SR leukemia): > 100 µM
TGI (SW-620 colon): > 100 µM
TGI (TK-10 renal): > 100 µM
TGI (UACC-257 melanoma): > 100 µM
TGI (UACC-62 melanoma): > 100 µM
TGI (UO-31 renal): > 100 µM
TGI (XF 498 CNS): > 100 µM

O=[N+]([O-])c1ccc(-n2nnc(C3=NCCN3)c2-c2ccccc2)cc1
TGI (786-0 renal): > 100 µM
TGI (A498 renal): > 100 µM
TGI (A549 NSCLC): > 100 µM
TGI (ACHN renal): > 100 µM
TGI (CAKI-1 renal): > 100 µM
TGI (CCRF-CEM leukemia): > 100 µM
TGI (COLO 205 colon): > 100 µM
TGI (DLD-1 colon): > 100 µM
TGI (DMS 114 small cell lung): > 100 µM
TGI (DMS 273 small cell lung): > 100 µM
TGI (EKVX NSCLC): > 100 µM
TGI (HCC-2998 colon): > 100 µM
TGI (HCT-116 colon): > 100 µM
TGI (HCT-15 colon): > 100 µM
TGI (HL-60(TB) leukemia): > 100 µM
TGI (HOP-18 NSCLC): > 100 µM
TGI (HOP-62 NSCLC): > 100 µM
TGI (HOP-92 NSCLC): > 100 µM
TGI (HT29 colon): > 100 µM
TGI (IGROV1 ovarian): > 100 µM
TGI (K-562 leukemia): > 100 µM
TGI (KM12 colon): > 100 µM
TGI (KM20L2 colon): > 100 µM
TGI (LOX IMVI melanoma): > 100 µM
TGI (LXFL 529 NSCLC): > 100 µM
TGI (M14 melanoma): > 100 µM
TGI (M19-MEL melanoma): > 100 µM
TGI (MALME-3M melanoma): > 100 µM
TGI (MOLT-4 leukemia): > 100 µM
TGI (NCI-H226 lung): > 100 µM
TGI (NCI-H23 lung): > 100 µM
TGI (NCI-H460 lung): > 100 µM
TGI (NCI-H522 lung): > 100 µM
TGI (OVCAR-3 ovarian): > 100 µM
TGI (OVCAR-4 ovarian): > 100 µM
TGI (OVCAR-5 ovarian): > 100 µM
TGI (OVCAR-8 ovarian): > 100 µM
TGI (RPMI-8226 leukemia): > 100 µM
TGI (RXF 393 renal): > 100 µM
TGI (SF-268 CNS): > 100 µM
TGI (SF-295 CNS): > 100 µM
TGI (SF-539 CNS): > 100 µM
TGI (SK-MEL-2 melanoma): > 100 µM
TGI (SK-MEL-28 melanoma): > 100 µM
TGI (SK-MEL-5 melanoma): > 100 µM
TGI (SK-OV-3 ovarian): > 100 µM
TGI (SN12C renal): > 100 µM
TGI (SNB-19 CNS): > 100 µM
TGI (SNB-75 CNS): > 100 µM
TGI (SNB-78 CNS): > 100 µM
TGI (SR leukemia): > 100 µM
TGI (SW-620 colon): > 100 µM
TGI (TK-10 renal): > 100 µM
TGI (U251 CNS): > 100 µM
TGI (UACC-257 melanoma): > 100 µM
TGI (UACC-62 melanoma): > 100 µM
TGI (UO-31 renal): > 100 µM
TGI (XF 498 CNS): > 100 µM

Cc1cn(C2CC3C(COCN3O)O2)c(=O)[nH]c1=O (stereo unspecified)
TGI (786-0 renal): > 100 µM
TGI (A549 NSCLC): > 100 µM
TGI (ACHN renal): > 100 µM
TGI (CCRF-CEM leukemia): > 100 µM
TGI (COLO 205 colon): > 100 µM
TGI (DMS 114 small cell lung): > 100 µM
TGI (DMS 273 small cell lung): > 100 µM
TGI (EKVX NSCLC): > 100 µM
TGI (HCC-2998 colon): > 100 µM
TGI (HCT-116 colon): > 100 µM
TGI (HCT-15 colon): > 100 µM
TGI (HL-60(TB) leukemia): > 100 µM
TGI (HOP-62 NSCLC): > 100 µM
TGI (HT29 colon): > 100 µM
TGI (IGROV1 ovarian): > 100 µM
TGI (K-562 leukemia): > 100 µM
TGI (KM12 colon): > 100 µM
TGI (KM20L2 colon): > 100 µM
TGI (LOX IMVI melanoma): > 100 µM
TGI (LXFL 529 NSCLC): > 100 µM
TGI (M14 melanoma): > 100 µM
TGI (M19-MEL melanoma): > 100 µM
TGI (MOLT-4 leukemia): > 100 µM
TGI (NCI-H226 lung): > 100 µM
TGI (NCI-H23 lung): > 100 µM
TGI (NCI-H460 lung): > 100 µM
TGI (OVCAR-3 ovarian): > 100 µM
TGI (OVCAR-4 ovarian): > 100 µM
TGI (OVCAR-5 ovarian): > 100 µM
TGI (OVCAR-8 ovarian): > 100 µM
TGI (RPMI-8226 leukemia): > 100 µM
TGI (RXF 393 renal): > 100 µM
TGI (SF-268 CNS): > 100 µM
TGI (SF-295 CNS): > 100 µM
TGI (SF-539 CNS): > 100 µM
TGI (SK-MEL-28 melanoma): > 100 µM
TGI (SK-MEL-5 melanoma): > 100 µM
TGI (SK-OV-3 ovarian): > 100 µM
TGI (SN12C renal): > 100 µM
TGI (SNB-19 CNS): > 100 µM
TGI (SNB-75 CNS): > 100 µM
TGI (SR leukemia): > 100 µM
TGI (SW-620 colon): > 100 µM
TGI (TK-10 renal): > 100 µM
TGI (U251 CNS): > 100 µM
TGI (UACC-257 melanoma): > 100 µM
TGI (UACC-62 melanoma): > 100 µM
TGI (UO-31 renal): > 100 µM
TGI (XF 498 CNS): > 100 µM

Source: PubChem BioAssay (NCI)
